Experimental data from patent publication US9624159B2, “Aniline derivatives, their preparation and their therapeutic application” (SANOFI, priority 2011, dated 2017).

How the values were obtained:
[1] = target: human prostanoid EP2 receptor (Homo sapiens (Human), UniProt P43116); test: Human prostanoid EP2 receptor cellular functional assay (cAMP, HTRF); assay type: cell-based; details: percent of control specific agonist response (10 μM PGE2)
Procedure: Test 1.2: Human Prostanoid EP2 Receptor Cellular Functional Assay
Human CHO cells expressing the recombinant human prostanoid EP2 receptor were suspended in assay medium (HBSS buffer (Invitrogen) containing 20 mM HEPES (pH7.4) and 500 μM isobutyl-methylxanthine IBMX) and plated out to yield approximately 1×10^4 cells/well in a 96-well. Following this, cells were incubated with agonists for 30 min in the presence of the test compounds. For stimulated control measurements, separate assay wells contain 10 μM PGE2 (control specific agonist). All incubations were carried out at 37° C. in a 5% CO2 atmosphere. Following incubation, the amount of cAMP in each well was determined by HTRF method. The cells are lysed and the fluorescence acceptor (D2-labeled cAMP) and fluorescence donor (anti-cAMP antibody labeled with europium cryptate) are added. After 60 min at room temperature, the fluorescence transfer is measured at λex=337 nm and λem=620 and 665 nm using a microplate reader (Rubystar, BMG).
The cAMP concentration is determined by dividing the signal measured at 665 nm by that measured at 620 nm (ratio).
The standard reference agonist PGE2 was tested at several concentrations to generate a concentration-response curve to determined EC50.
Analysis and Expression of Results […]

[2] = tested on: laser-induced glaucomatous monkeys; test: Laser-induced hypertensive cynomolgus monkey, intraocular pressure; assay type: in vivo; details: 0.01% topically to glaucomatous eye once daily for 5 days
Procedure: Laser-Induced Hypertensive Cynomolgus Monkey
Ten adult female cynomolgus monkeys, each weighing 3-5 kg, in which glaucoma had been induced unilaterally by diode laser photocoagulation of the mid-trabecular meshwork, were used in this study.
Intraocular pressure (IOP) was measured at 0 hr (before drug administration) and then hourly until 6 hrs after drug administration on one baseline day, one vehicle-treatment day, and treatment days 1, 3, and 5 with 0.01% of compound II(d).
Compound II(d) was tested in two groups of 4 monkeys for a total of 8 monkeys. Following one baseline day (untreated) and one vehicle-treatment day (50 μl (25 μl×2), drop of vehicle to the glaucomatous eye at 9:30 (a 50 μl drop (25 μl×2) of compound (II(d)) were topically applied to the glaucomatous eye only once daily at 9:30 am for 5 consecutive days.
Slit-lamp examination for the detection of aqueous humor flare and cells was performed in a dark room before drug administration and at 1, 3 and 5 hrs after dosing on baseline day and at the same times on treatment days 1, 3 and 5.
Two-tailed paired and unpaired t test and the ANOVA test were used for statistical analysis.

Sequence of human prostanoid EP2 receptor (P43116 whole entry): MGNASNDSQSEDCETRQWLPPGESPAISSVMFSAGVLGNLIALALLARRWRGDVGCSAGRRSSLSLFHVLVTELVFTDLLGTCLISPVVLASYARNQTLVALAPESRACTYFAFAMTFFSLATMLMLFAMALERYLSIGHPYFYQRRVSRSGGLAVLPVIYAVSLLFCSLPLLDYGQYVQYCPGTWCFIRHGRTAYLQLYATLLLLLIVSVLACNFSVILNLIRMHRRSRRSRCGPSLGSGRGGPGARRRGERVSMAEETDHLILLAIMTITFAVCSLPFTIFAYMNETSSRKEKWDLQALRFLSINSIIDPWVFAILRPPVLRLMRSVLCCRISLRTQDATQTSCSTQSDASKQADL

SMILES | In vitro functional assay % response [1] [%] | overall IOP reduction [2] [%]
C[C@@H](Nc1c(F)ccc(OCC(=O)O)c1F)c1cc(-c2cccc(F)c2)ccc1F (single isomer, unassigned) [I(as) (+isomer)] | 124 | –
CC(C)OC(=O)COc1ccc(F)c(NCc2cc(-c3cccc(F)c3)ccc2F)c1F [II(d), Isopropyl 2-[2,4-difluoro-3-[[2-fluoro-5-(3-fluorophenyl)phenyl]methylamino]phenoxy]acetate] | – | 22
